Measurements taken from patent publication US9486440B2, “Uses of indole-ketones or indolidones as neuro-protective drugs” (UNIVERSITY OF MACAU, priority 2011, dated 2016).

Columns and labels:
CGNs = assay: Low potassium-induced cell death in CGNs, MTT assay; type: cell-based; conditions: 5 mM KCl BME medium, 24 hours; sunitinib 0.1-2 μM
Description: Cell viability was measured by MTT assay at 24 hours after low potassium challenge. […] After 24 hours of low potassium challenge, CGNs were assayed with an FDA/PI double staining. […] After 24 hours of low potassium challenge, CGNs were assayed with Hoechst staining. The number of apoptotic nuclei with condensed chromatin were counted from representative Hoechst staining photomicrographs and represented as a percentage of the total number of nuclei counted. […] Intracellular NO level was measured using DAF-FM diacetate as a probe at 4 hour after low potassium challenge. Data, expressed as percentage of control (CGNs were cultured in high potassium medium), were the mean±SEM of three separate experiments; *p<0.05 and **p<0.01 versus low potassium group in (A) and (D) or versus control in (C); ^##p<0.01 versus low potassium group in (C) (Turkey's test).
It was previously reported that low potassium could induce typical apoptosis in cerebellar granule neurons (CGNs) (Fu et al., 2008). […] Cell viability was measured with an MTT assay 24 hours after the low potassium treatment.

[1] = target: T1, recombinant human inducible NOS (iNOS) (Homo sapiens, UniProt P35228); assay: In vitro NOS activity assay, iNOS; type: biochemical; conditions: up to 1 mM
T1 construct: purchased Alexis Biochemicals (Lausen, Switzerland)
Description: In the in vitro NOS activity assay (Li et al., 2007), purified recombinant human nNOS, endothelial NOS (eNOS), and inducible NOS (iNOS) were bought from Alexis Biochemicals (Lausen, Switzerland). NOS activity was determined by monitoring the conversion of L-[3H]arginine to [3H]citrulline following the instructions provided in the kit (Calbiochem, USA). The reaction mixture contained a final volume of 40 μl with 25 mM Tris-Cl at pH 7.4, 3 μM tetrahydrobiopterin, 1 μM FAD, 1 μM FMN, 1 mM NADPH, 0.6 mM CaCl2, 0.1 μM calmodulin, 2.5 μg of pure NOS enzyme, 5 μl L-[3H]arginine (Perkin Elmer, Waltham, Mass., USA), and different concentrations of the tested reagents. The reaction mixture was incubated at 22° C. for 45 min. The reaction was quenched by adding 400 μl of stopping buffer (50 mM HEPES, pH 5.5, and 5 mM EDTA) for nNOS and eNOS reactions or by heating reactive tubes for iNOS. Unreacted L-[3H]arginine was then trapped by 100 μl of equilibrated resin provided in a spin cup followed by centrifugation for 30 s at 13,200 rpm. The filtrate was quantified by liquid scintillation counting.

recombinant human MAO-B = target: T2, recombinant human MAO-B (Homo sapiens, UniProt P27338); assay: MAO-Glo MAO-B inhibition assay; type: biochemical
T2 construct: purchased Sigma-Aldrich
Description: The MAO-B inhibition activity of SU4312 was determined by MAO-Glo™ Assay kit (Promega Inc., USA). The recombinant human MAO-B enzymes and selegiline used in this study were purchased from Sigma-Aldrich. Concentrations of SU4312 tested were 0.01, 0.03, 0.1, 0.3, 1.0 and 10 μM. Selegiline, a known MAO-B inhibitor, was used as positive control at 0.001, 0.01, 0.1, 1, 10 μM. Briefly, SU4312 and selegiline were incubated in 96-well opaque white plates with MAO substrate and rhMAO-B (0.25 mg protein/mL final concentration). Reactions were started by addition of rhMAO-B. Samples were incubated for 1 hour at room temperature. Reactions were terminated by addition of luciferin detection reagent, and samples were incubated an additional 20 minutes to allow development of luciferase- and esterase-dependent luminescence. Relative luminescence was determined with a plate luminometer and was corrected for background using no-MAO-B controls. Results are presented as percent of vehicle (total MAO-B activity).

th gene = assay: MPTP zebrafish, th gene expression by real-time PCR; type: in vivo; conditions: 200 μM MPTP, 48 hours
Description: Wild-type zebrafish (AB strain) and Tg (fli-1:EGFP) transgenic zebrafish were maintained as described in the Zebrafish Handbook (Westerfield, 1993). Zebrafish embryos were generated by natural pair-wise mating (3-12 months old) and raised at 28.5° C. in embryo medium (13.7 mM NaCl, 540 μM KCl, pH 7.4, 25 μM Na2HPO4, 44 μM KH2PO4, 300 μM CaCl2, 100 μM MgSO4, 420 μM NaHCO3, pH 7.4). […] An equal concentration of DMSO in embryo medium was used as vehicle control in each experiment.
Healthy zebrafish embryos were picked out and […] manually at 1 day post fertilization (dpf) and distributed into a 12-well plate with 20 fish embryos or a 6-well microplate with 30 fish embryos in each well. […] Thus subsequent studies were done with 200 μM MPTP for whole-mount immunostaining and gene expression experiments.
Total RNA was extracted from 30 zebrafish larvae of each treatment group using the RNeasy Mini Kit (Qiagen, USA) according to the manufacturer's instructions. […] The expression of the mRNA was normalized to the amount of bactin1 using the relative quantification method described by the manufacturer. […]

[2] = tested on: retinal photoreceptors or ganglion cells; conditions: 3 mg of SU4312 every 5 days for 12 weeks; cited from earlier work

T2 sequence (P27338 whole entry): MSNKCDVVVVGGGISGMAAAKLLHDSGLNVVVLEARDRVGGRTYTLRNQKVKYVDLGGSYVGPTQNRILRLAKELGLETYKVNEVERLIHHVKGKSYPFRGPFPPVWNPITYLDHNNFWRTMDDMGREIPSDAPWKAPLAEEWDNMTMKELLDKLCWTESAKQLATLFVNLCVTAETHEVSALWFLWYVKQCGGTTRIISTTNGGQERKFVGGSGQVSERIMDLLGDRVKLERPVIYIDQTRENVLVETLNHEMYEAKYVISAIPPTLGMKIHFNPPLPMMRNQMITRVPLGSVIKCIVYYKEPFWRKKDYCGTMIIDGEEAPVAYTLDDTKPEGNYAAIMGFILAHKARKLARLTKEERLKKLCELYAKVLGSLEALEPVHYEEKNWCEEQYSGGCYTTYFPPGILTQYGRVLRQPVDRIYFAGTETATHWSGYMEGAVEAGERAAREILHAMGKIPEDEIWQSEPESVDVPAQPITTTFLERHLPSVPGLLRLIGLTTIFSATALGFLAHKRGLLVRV

| Compound | low potassium-induced cell death (MTT) (CGNs) | inhibition of recombinant human iNOS [1] | MAO-B activity in vitro (recombinant human MAO-B; figure legends) | IC50 (recombinant human MAO-B; rhMAO-B, 1 hour at room temperature) [nM] | th gene expression down-regulated by MPTP (th gene) | damage to retinal photoreceptors or ganglion cells [2] |
| --- | --- | --- | --- | --- | --- | --- |
| Clc1ccc(Nc2nnc(Cc3ccncc3)c3ccccc23)cc1 [PTK787/ZK222584] | at 3 and 10 μM both failed to block neuronal loss in vitro | did not inhibit any of the isoforms even at 1 mM |  |  |  |  |
| CN(C)c1ccc(C=C2C(=O)Nc3ccccc32)cc1 [SU4312, 3-[4-(dimethylamino)benzylidenyl]indolin-2-one] |  |  | inhibited monoamine oxidase-B (MAO-B) activity in a concentration dependent manner | ~200 | significantly alleviated the loss of DA neurons and decrease of th gene expression in a concentration-dependent manner | did not damage retinal photoreceptors or ganglion cells |
